Converted amounts (≈) assume the structure as drawn. Read-outs that look alike come from different tables or passages of the source.
Experiments:
[1] = test system: Staphylococcus aureus bacteria (ATCC 9604 SV); assay: Minimal inhibitory concentration (MIC), broth microdilution; assay type: cell-based; details: 24 h at 37° C.
Protocol: (§1) Minimal inhibitory concentrations (MICs) for Staphylococcus aureus bacteria (ATCC 9604 SV) were determined by broth microdilution methodology following National Committee for Clinical Laboratory Standards. In the MIC determinations, the compounds were incorporated into Mueller-Hinton broth (Becton Dickinson Microbiology systems, Cockeyville, Md.) at a series of concentrations. After the test organism was grown overnight in TB broth, the broths were adjusted to the turbidity equivalent to 0.05 McFarland standard. The suspensions were diluted twenty-fold into the broth containing the compounds. […] In the IC50 determination, the method was modified to allow the rapid growth of the organisms. The inoculum suspensions were adjusted to 0.1 McFarland standard and then diluted two-fold into the wells containing TB broth and the compounds. After three to five hours incubation at 37° C., the turbidity was measured at 550 nm and inhibitory activity was defined as the concentration of antimicrobial agent that inhibits 50% growth of the organism in the microdilution wells.

[2] = test system: Staphylococcus aureus bacteria (ATCC 9604 SV); assay: IC50 determination, growth inhibition by turbidity at 550 nm; assay type: cell-based; details: Staphylococcus aureus ATCC 9604 SV, turbidity at 550 nm after 3-5 h at 37° C.
Protocol: as §1

[3] = test system: methicillin-resistant Staphylococcus aureus (ATCC 33591); assay: In vivo mouse intraperitoneal infection, mortality and % survivors over 7 days; details: single dose 1 h post inoculation, MRSA ATCC 33591 i.p., ICR mice
Protocol: Ten male ICR mice weighing 20 grams were inoculated intraperitoneally with an LD90-100 dose (2-3×10^7 CFU/mouse) of methicillin-resistant Staphylococcus aureus (ATCC 33591) in brain-heart infusion broth containing 5% mucin. Compounds were suspended in a vehicle containing 1% cremophore EL (Sigma) in normal saline and were administered subcutaneously in a volume of 0.4 ml per mouse either 1 hour following bacterial inoculation or 1 and 5 hours post inoculation. Animals receiving two doses of drug were injected subcutaneously in the hindquarter one hour post-innoculation and in the neck area, 5 hours post-innoculation. Deaths occurring during the subsequent 7 days are recorded. Mortality and % survivor endpoints are calculated.

[4] = Staphylococcus aureus ATCC 9604 SV

Row | SMILES | MIC [1, 4] [µg/mL] | IC50 [2] [nM] | also measured
1 | O=C(Nc1ccc(Cl)c(C(F)(F)F)c1)Nc1cc(-c2ccccc2)nn1-c1ccc(C(F)(F)F)cc1 [Compound 75] | <0.787 | 96 | –
2 | O=C(Nc1cc(C(F)(F)F)cc(C(F)(F)F)c1)Nc1nc(CCc2ccccc2)cs1 [Compound 131] | 23.4 (≈ 50.9 µM) | 367 | –
3 | O=C(NCc1ccc(Cl)c(Cl)c1)Nc1nc(-c2ccc(F)c(F)c2)cs1 [Compound 182] | 5.18 (≈ 12.5 µM) | 2850 | –
4 | O=C(Nc1ccc(OC(F)F)cc1)Nc1nc(-c2ccc(F)c(F)c2)cs1 [Compound 160] | 1.19 (≈ 2.99 µM) | 461 | –
5 | O=C(Nc1cc(C(F)(F)F)cc(C(F)(F)F)c1)Nc1cc(-c2ccncc2)nn1-c1ccc(Br)cc1 [Compound 119] | 0.855 (≈ 1.5 µM) | 163 | –
6 | O=C(Nc1cc(Cl)cc(Cl)c1)Nc1c2c(nn1-c1ccc(Br)cc1)CCCC2 [Compound 105] | >24.0 | 3210 | –
7 | CCOC(=O)C(=O)c1csc(NC(=O)Nc2cc(C(F)(F)F)cc(C(F)(F)F)c2)n1 [Compound 129] | 11.4 (≈ 25 µM) | 944 | –
8 | CCOC(=O)c1nc(NC(=O)Nc2cc(C(F)(F)F)cc(C(F)(F)F)c2)sc1C [Compound 128] | – | 510 | In Vivo, single dose (% of mice rescued) ([3]; 2 mg/kg s.c.): 0% @ 2 mg/kg; In Vivo, single dose (% of mice rescued) ([3]; 20 mg/kg s.c.): 0% @ 20 mg/kg
9 | Cc1cc(-c2cc(NC(=O)Nc3cc(C(F)(F)F)cc(C(F)(F)F)c3)n(-c3ccc(Br)cc3)n2)no1 [Compound 115] | 1.72 (≈ 3 µM) | 402 | –
10 | O=C(Nc1cc(C(F)(F)F)cc(C(F)(F)F)c1)Nc1nc(-c2ccc(CO)cc2)cs1 [Compound 145] | >23.1 | 3740 | –
11 | O=C(Nc1cc(C(F)(F)F)cc(C(F)(F)F)c1)Nc1c(Br)cnn1-c1ccc(Br)cc1 [Compound 97, 1-(3,5-Bis-trifluoromethyl-phenyl)-3-[4-bromo-2-(4-bromo-phenyl)-2H-pyrazol-3-yl]-urea] | – | – | MIC ([1]; ATCC9604, Staphylococcus aureus ATCC 9604 SV, read-out: MIC): > 29.3 µg/mL; IC50 ([2]; ATCC9604): 107 nM
12 | Cc1cc(-c2csc(NC(=O)Nc3ccc(F)c(C(F)(F)F)c3)n2)ccc1F [Compound 169] | >20.7 | 661 | –
13 | O=C(Nc1cc(C(F)(F)F)cc(C(F)(F)F)c1)Nc1nc(-c2ccc(CCO)cc2)cs1 [Compound 146] | 2.71 (≈ 5.7 µM) | 1610 | –
14 | O=C(Nc1cc(C(F)(F)F)cc(C(F)(F)F)c1)Nc1nc(-c2ccc(F)cc2)cs1 [Compound 139] | – | 100 | In Vivo, single dose (% of mice rescued) ([3]; 2 mg/kg s.c.): 0% @ 2 mg/kg; In Vivo, single dose (% of mice rescued) ([3]; 20 mg/kg s.c.): 0% @ 20 mg/kg
15 | O=C(Nc1cc(C(F)(F)F)cc(C(F)(F)F)c1)Nc1nc(-c2cc(CO)no2)cs1 [Compound 154] | >22.6 | 20100 | –
16 | CC(NC(=O)Nc1nc(-c2ccc(Br)cc2)cs1)C(O)c1ccccc1 (stereo not shown) [Compound 183] | 10.8 (≈ 25 µM) | 6380 | –
17 | O=C(Nc1cc(C(F)(F)F)cc(C(F)(F)F)c1)Nc1cc(Cc2ccccc2)nn1-c1ccc(C(F)(F)F)cc1 [Compound 74] | 3.43 (≈ 5.99 µM) | 127 | –
18 | O=C(O)Cc1csc(NC(=O)Nc2cc(C(F)(F)F)cc(C(F)(F)F)c2)n1 [Compound 127] | >20.7 | 29300 | –
19 | O=C(Nc1cc(C(F)(F)F)cc(C(F)(F)F)c1)Nc1nc2ccccc2s1 [Compound 156] | 1.22 (≈ 3.01 µM) | 295 | –
20 | O=C(Nc1cc(C(F)(F)F)cc(C(F)(F)F)c1)Nc1nc(-c2cccc(F)c2)cs1 [Compound 135] | 1.35 (≈ 3 µM) | 107 | –
21 | Cc1nc(NC(=O)Nc2cc(C(F)(F)F)cc(C(F)(F)F)c2)sc1C [Compound 123] | 1.15 (≈ 3 µM) | 520 | –
22 | O=C(Nc1cc(Cl)cc(Cl)c1)Nc1cc(-c2ccncc2)nn1-c1ccc(Br)cc1 [Compound 118] | 0.755 (≈ 1.5 µM) | 239 | –
23 | O=C(Nc1ccc(F)c(C(F)(F)F)c1)Nc1nc(-c2cccc(F)c2)cs1 [Compound 165] | 2.40 (≈ 6.01 µM) | 364 | –

Row | SMILES | MIC [1, 4] [µg/mL] | IC50 [2] [nM] | also measured
24 | CN(C)Cc1cc(NC(=O)Nc2cc(C(F)(F)F)cc(C(F)(F)F)c2)n(-c2ccc(C(F)(F)F)cc2)n1 [Compound 90] | 13.5 (≈ 25 µM) | 4400 | –
25 | O=C(Nc1cc(C(F)(F)F)cc(C(F)(F)F)c1)Nc1nc(-c2ccc(OC(F)F)cc2)cs1 [Compound 142] | 6.22 (≈ 12.5 µM) | 235 | –
26 | O=C(Nc1cc(C(F)(F)F)cc(C(F)(F)F)c1)Nc1nc(-c2ccc(C(F)(F)F)cc2)cs1 [Compound 143] | 1.40 (≈ 2.8 µM) | 129 | –
27 | O=C(Nc1cc(C(F)(F)F)cc(C(F)(F)F)c1)Nc1c(-c2ccccc2)cnn1-c1ccc(C(F)(F)F)cc1 [Compound 71] | – | 330 | –
28 | Cc1cnc(NC(=O)Nc2cc(C(F)(F)F)cc(C(F)(F)F)c2)s1 [Compound 122] | >18.5 | 2720 | –
29 | O=C(Nc1cc(C(F)(F)F)cc(C(F)(F)F)c1)Nc1nc(-c2ccc3ccccc3c2)cs1 [Compound 153] | – | 1450 | –
30 | O=C(Nc1nc(-c2ccc(Cl)cc2)cs1)Nc1ccc(Br)cc1C(F)(F)F [Compound 162] | – | 4710 | –
31 | O=C(Nc1cc(C(F)(F)F)cc(C(F)(F)F)c1)Nc1nc(-c2ccc(Cl)cc2)cs1 [Compound 138, 1-(3,5-Bis-trifluoromethyl-phenyl)-3-[4-(4-chloro-phenyl)-thiazol-2-yl]-urea] | – | – | IC50 ([2]; ATCC9604): 100 nM
32 | O=C(Nc1ccc(SC(F)(F)F)cc1)Nc1nc(-c2ccc(F)c(F)c2)cs1 [Compound 161] | <0.647 | 134 | –
33 | CC(C)(C)c1cc(NC(=O)Nc2cc(Cl)cc(Cl)c2)n(-c2ccc(C(F)(F)F)cc2)n1 [Compound 73] | – | 83 | In Vivo, single dose (% of mice rescued) ([3]; 2 mg/kg s.c.): 0% @ 2 mg/kg; In Vivo, single dose (% of mice rescued) ([3]; 20 mg/kg s.c.): 0% @ 20 mg/kg
34 | C=CCCc1csc(NC(=O)Nc2cc(C(F)(F)F)cc(C(F)(F)F)c2)n1 [Compound 126] | 10.2 (≈ 24.9 µM) | 612 | –
35 | N#Cc1ccc(-c2csc(NC(=O)Nc3cc(C(F)(F)F)cc(C(F)(F)F)c3)n2)cc1 [Compound 144] | – | 337 | –
36 | O=C(Nc1ccc(F)c(C(F)(F)F)c1)Nc1nc(-c2ccc(Cl)cc2)cs1 [Compound 167] | – | 175 | –
37 | O=C(Nc1nc(-c2ccc(Cl)cc2)cs1)Nc1cc(Cl)c(Cl)cc1Cl [Compound 170] | >21.7 | 910 | –
38 | Cc1cc(-c2cc(NC(=O)Nc3cc(Cl)cc(Cl)c3)n(-c3ccc(Br)cc3)n2)no1 [Compound 114] | – | 1630 | –
39 | O=C(Nc1cc(C(F)(F)F)cc(C(F)(F)F)c1)Nc1c2c(nn1-c1ccc(Br)cc1)CCCC2 [Compound 106] | >27.4 | 459 | –
40 | O=C(Nc1cc(C(F)(F)F)cc(C(F)(F)F)c1)Nc1cc(-c2ccccn2)nn1-c1ccc(C(F)(F)F)cc1 [Compound 85] | – | 359 | –
41 | O=C(Nc1cc(C(F)(F)F)cc(C(F)(F)F)c1)Nc1nc(Cc2ccccc2)cs1 [Compound 130] | 1.34 (≈ 3.01 µM) | 275 | –
42 | O=C(Nc1cc(C(F)(F)F)cc(C(F)(F)F)c1)Nc1cc(-c2cccc(Cl)c2)nn1-c1ccc(C(F)(F)F)cc1 [Compound 78] | – | 206 | –
43 | COc1ccc(-c2cc(NC(=O)Nc3cc(C(F)(F)F)cc(C(F)(F)F)c3)n(-c3ccc(C(F)(F)F)cc3)n2)cc1 [Compound 82] | – | 149 | –
44 | O=C(Nc1cc(C(F)(F)F)cc(C(F)(F)F)c1)Nc1cc(-c2ccc(CN3CCOCC3)cc2)nn1-c1ccc(C(F)(F)F)cc1 [Compound 88] | >32.9 | 1480 | –
45 | Cc1sc(NC(=O)Nc2cc(C(F)(F)F)cc(C(F)(F)F)c2)nc1-c1ccc(Br)cc1 [Compound 137] | – | 838 | –

— patent publication US6410533B1, “Antibacterial compounds” (Genzyme Corporation, priority 2000, dated 2002)
